Source: patent publication US10183936B2, “Hepatitis B core protein allosteric modulators” (priority 2014, dated 2019)

Assays:
[1] = system: HBV viral production in AD38 cells; assay: Viral load production in AD38 cells by quantitative PCR of the HBV core sequence in supernatant; type: cell-based; details: 10 μM compound, 6 days at 37° C., viral load in supernatant compared against DMSO control wells; for activity at 10 µM: Hepatitis B virus, 144 h, read-out: AD38 Viral Load (CpAM/DMSO %) at 10 μM
In short: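 AD38 cells seeded at 50,000/well, treated 6 days at 37° C with compound added as 10× solution in 10% DMSO. HBV core sequence in clarified supernatant quantified by TaqMan qPCR against known standards; viral load compared with DMSO control wells.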

AD38 cells = assay: Viability of AD38 cells (Promega CellTiter-Glo) at the end of compound treatment; type: cell-based; details: 10 μM compound, 6 days, luminescence normalized against DMSO control wells (controls being 100%)
In short: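 AD38 cells seeded at 50,000/well received compound from a 10× solution in 10% DMSO and were incubated 6 days at 37° C. Viability was then read by CellTiter-Glo luminescence in tetracycline-free medium with 2% FBS and 1% DMSO, normalized to DMSO control wells (100%) and reported as percent viability.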

Row | Structure (SMILES) | activity at 10 µM [1] | AD38 Viability Normalized Result (CPAM/DMSO %) at 10 μM (AD38 cells) | AD38 Viral Load (CpAM/DMSO %) at 10 μM [1]
1 | Cc1ccc2c(c1)C(=O)Nc1cc(C(=O)NCCC3CCCCC3)ccc1S2 [Compound 1274] | 11% | 88% | –
2 | Cc1cc2c(cc1C(=O)NCCC1CCCCC1)NC(=O)c1ccccc1S2 [Compound 1275] | 3% | 93% | –
3 | NC(=O)c1ccc2c(c1)Sc1ccc(C(=O)NCCC3CCCCC3)cc1NC2=O [Compound 1276] | 24% | 89% | –
4 | CN(C)C(=O)c1ccc2c(c1)Sc1ccc(C(=O)NCCC3CCCCC3)cc1NC2=O [Compound 1278, N-(2-cyclohexylethyl)-N^3,N^3-dimethyl-11-oxo-10, 11-dihydrodibenzo [b,f] [1,4] thiazepine-3,8-dicarboxamide] | – | 88% | 3%
5 | NC(=O)c1ccc2c(c1)Sc1ccc(C(=O)NCCc3ccccc3)cc1NC2=O [Compound 1279] | 55% | 84% | –
6 | CNC(=O)c1ccc2c(c1)Sc1ccc(C(=O)NCCc3ccccc3)cc1NC2=O [Compound 1280, N^3-methyl-11-oxo-N^8-phenethyl-10, 11-dihydrodibenzo [b,f] [1,4] thiazepine-3,8-dicarboxamide] | 74% | 94% | –
7 | CN(C)C(=O)c1ccc2c(c1)Sc1ccc(C(=O)NCCc3ccccc3)cc1NC2=O [Compound 1281, N^3,N^3-dimethyl-11-oxo-N^8-phenethyl-10, 11-dihydrodibenzo [b,f] [1,4] thiazepine-3,8-dicarboxamide] | 29% | 86% | –
8 | O=C(O)c1ccc2c(c1)Sc1ccc(C(=O)NCCC3CCCCC3)cc1NC2=O [Compound 1282, 8-((2-cyclohexylethyl)carbamoyl)-11-oxo-10, 11-dihydrodibenzo [b, f] [1,4] thiazepine-3-carboxylic acid] | 102% | 105% | –
9 | CCc1cccc(CNC(=O)c2ccc3c(c2)NC(=O)c2ccccc2S3)c1 [Compound 1283] | 1% | 97% | –
10 | O=C(NCCC1CCCCC1)c1ccc2c(c1)NC(=O)c1cc(F)ccc1S2 [Compound 1285] | 3% | 108% | –
11 | Cc1cc(C(=O)NCCC2CCCCC2)cc2c1Sc1ccccc1C(=O)N2 [Compound 1286] | 36% | 114% | –
12 | COc1cc2c(cc1C(=O)NCCC1CCCCC1)NC(=O)c1ccccc1S2 [Compound 1287] | 11% | 96% | –
13 | O=C1Nc2cc(S(=O)(=O)NCCc3ccccc3)ccc2Sc2ccccc21 [Compound 1289, 11-oxo-N-phenethyl-10, 11-dihydrodibenzo [b,f] [1,4] thiazepine-8-sulfonamide] | 40% | 96% | –
14 | O=C(NCCc1cncnc1)c1ccc2c(c1)NC(=O)c1ccccc1S2 [Compound 1290] | 33% | 94% | –
15 | O=C(NCCc1ccc(-c2cnn[nH]2)cc1)c1ccc2c(c1)NC(=O)c1ccccc1S2 [Compound 1291] | 1% | 102% | –
16 | O=C(NCc1cncnc1)c1ccc2c(c1)NC(=O)c1cc(F)ccc1S2 [Compound 1308] | 1% | 99% | –
17 | O=C(NCc1cncs1)c1ccc2c(c1)NC(=O)c1cc(F)ccc1S2 [Compound 1309] | 1% | 107% | –
18 | O=C(NCCc1ccccn1)c1ccc2c(c1)NC(=O)c1cc(F)ccc1S2 [Compound 1310] | 1% | 89% | –
19 | O=C(NCc1cnco1)c1ccc2c(c1)NC(=O)c1cc(F)ccc1S2 [Compound 1311] | 8% | 95% | –
20 | O=C(NCCc1cncnc1)c1ccc2c(c1)NC(=O)c1cc(F)ccc1S2 [Compound 1312] | 5% | 83% | –
21 | CC(C)(C)c1ccc([C@@H](CO)NC(=O)c2ccc3c(c2)NC(=O)c2cc(F)ccc2S3)cc1 [Compound 1313] | 17% | 108% | –
22 | O=C(NCc1ccc(-c2cncnc2)cc1)c1ccc2c(c1)NC(=O)c1cc(F)ccc1S2 [Compound 1314] | 69% | 101% | –
23 | O=C(NCc1cnc(-c2ccccc2)nc1)c1ccc2c(c1)NC(=O)c1cc(F)ccc1S2 [Compound 1315] | 4% | 103% | –
24 | O=C(Nc1ccc(F)cc1)c1ccc2c(c1)NC(=O)c1cc(F)ccc1S2 [Compound 1316] | 32% | 89% | –
25 | O=C(Nc1cccc(F)c1)c1ccc2c(c1)NC(=O)c1cc(F)ccc1S2 [Compound 1317] | 50% | 95% | –

Row | Structure (SMILES) | activity at 10 µM [1] | AD38 Viability Normalized Result (CPAM/DMSO %) at 10 μM (AD38 cells) | AD38 Viral Load (CpAM/DMSO %) at 10 μM [1]
26 | O=C(Nc1ccc(F)cc1F)c1ccc2c(c1)NC(=O)c1cc(F)ccc1S2 [Compound 1318] | 14% | 70% | –
27 | O=C(Nc1ccccc1)c1ccc2c(c1)NC(=O)c1cc(F)ccc1S2 [Compound 1319] | 16% | 83% | –
28 | O=C(NCCc1ccc(-c2cncnc2)cc1)c1ccc2c(c1)NC(=O)c1cc(F)ccc1S2 [Compound 1320] | 43% | 93% | –
29 | O=C(Nc1ccc(Cl)cc1)c1ccc2c(c1)NC(=O)c1cc(F)ccc1S2 [Compound 1321] | 15% | 74% | –
30 | O=C(Nc1ccccc1F)c1ccc2c(c1)NC(=O)c1cc(F)ccc1S2 [Compound 1322] | 28% | 94% | –
31 | O=C(Nc1ccc(F)cc1Cl)c1ccc2c(c1)NC(=O)c1cc(F)ccc1S2 [Compound 1323] | 96% | 60% | –
32 | O=C(Nc1cc(F)c(F)c(F)c1)c1ccc2c(c1)NC(=O)c1cc(F)ccc1S2 [Compound 1324] | 10% | 24% | –
33 | O=C(Nc1ccc2ncsc2c1)c1ccc2c(c1)NC(=O)c1cc(F)ccc1S2 [Compound 1325] | 26% | 90% | –
34 | O=C(Nc1ccc(-c2ccccc2)cc1)c1ccc2c(c1)NC(=O)c1cc(F)ccc1S2 [Compound 1326] | 23% | 95% | –
35 | O=C(Nc1cncnc1)c1ccc2c(c1)NC(=O)c1cc(F)ccc1S2 [Compound 1328] | 54% | 105% | –
36 | O=C(Nc1nccs1)c1ccc2c(c1)NC(=O)c1cc(F)ccc1S2 [Compound 1329] | 62% | 109% | –
37 | O=C(Nc1ccncc1)c1ccc2c(c1)NC(=O)c1cc(F)ccc1S2 [Compound 1330] | 41% | 109% | –
38 | O=C(Nc1ccc2ncoc2c1)c1ccc2c(c1)NC(=O)c1cc(F)ccc1S2 [Compound 1331] | 43% | 88% | –
39 | O=C(Nc1nc2ccc(F)cc2s1)c1ccc2c(c1)NC(=O)c1cc(F)ccc1S2 [Compound 1332] | 70% | 103% | –
40 | O=C(Nc1cccc(-c2ccccc2)c1)c1ccc2c(c1)NC(=O)c1cc(F)ccc1S2 [Compound 1333] | 20% | 73% | –
41 | O=C(Nc1ccc(Cl)cc1F)c1ccc2c(c1)NC(=O)c1cc(F)ccc1S2 [Compound 1334] | 33% | 83% | –
42 | O=C(Nc1cncs1)c1ccc2c(c1)NC(=O)c1cc(F)ccc1S2 [Compound 1335] | 87% | 104% | –
43 | O=C(Nc1ccc(F)cn1)c1ccc2c(c1)NC(=O)c1cc(F)ccc1S2 [Compound 1336] | 70% | 90% | –
44 | O=C(Nc1cncc(F)c1)c1ccc2c(c1)NC(=O)c1cc(F)ccc1S2 [Compound 1337] | 77% | 91% | –
45 | O=C(Nc1ccc(Cl)cn1)c1ccc2c(c1)NC(=O)c1cc(F)ccc1S2 [Compound 1338] | 70% | 118% | –
46 | O=C(Nc1nc2ccccc2s1)c1ccc2c(c1)NC(=O)c1cc(F)ccc1S2 [Compound 1339] | 113% | 70% | –
47 | O=C(Nc1nc2ccc(Cl)cc2s1)c1ccc2c(c1)NC(=O)c1cc(F)ccc1S2 [Compound 1340] | 64% | 116% | –
48 | COC(=O)C(Cc1cncnc1)NC(=O)c1ccc2c(c1)NC(=O)c1cc(F)ccc1S2 (centres unmarked) [Compound 1342, Methyl 2-(2-fluoro-11-oxo-10, 11-dihydrodibenzo [b,f] [1,4]thiazepine-8-carboxamido)-3-(pyrimidin-5-yl) propanoate] | – | 95% | 113%
49 | O=C(NCCc1cnc(-c2ccccc2)nc1)c1ccc2c(c1)NC(=O)c1cc(F)ccc1S2 [Compound 1343] | 8% | 91% | –
